Laboratory results as given in patent US10266526B2, “Substituted 1,2,3-triazoles as SMYD inhibitors for treating cancer” (EPIZYME, INC., priority 2014, dated 2019).

target: SMYD2 (Homo sapiens (Human), UniProt Q9NRG4); test: SMYD2 biochemical assay (SMYD2 enzyme assay on peptide substrate, 3H-SAM Flashplate); settings: read-out: SMYD2 Biochem IC50; IC50 values are an average of n = 1 to n = 50
Sequence (Q9NRG4 whole entry): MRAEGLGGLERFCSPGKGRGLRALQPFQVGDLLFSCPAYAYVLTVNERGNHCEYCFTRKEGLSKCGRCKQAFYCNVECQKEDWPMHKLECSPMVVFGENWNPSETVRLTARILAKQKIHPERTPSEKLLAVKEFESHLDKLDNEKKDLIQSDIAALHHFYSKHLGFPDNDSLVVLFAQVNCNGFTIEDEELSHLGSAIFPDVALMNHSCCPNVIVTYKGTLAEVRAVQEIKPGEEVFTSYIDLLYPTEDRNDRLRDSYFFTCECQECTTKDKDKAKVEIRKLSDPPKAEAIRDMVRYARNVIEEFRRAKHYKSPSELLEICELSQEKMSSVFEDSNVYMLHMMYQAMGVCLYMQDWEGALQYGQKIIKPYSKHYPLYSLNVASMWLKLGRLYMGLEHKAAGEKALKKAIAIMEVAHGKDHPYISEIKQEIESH

Question: Which IC50 does the source give for `CC(c1ccc(F)cc1)N1CC(NC(=O)c2cn(C3CC3)nn2)C1` (stereo not shown) [compound 747, 1-cyclopropyl-N-{1-[1-(4-fluorophenyl)ethyl]azetidin-3-yl}-1H-1,2,3-triazole-4-carboxamide] here?
Answer: The IC50 was 1.92 µM.

Question: Which IC50 does the source give for `COc1ccc(C(C)N2CC(NC(=O)c3cn(C4CC4)nn3)C2)cc1OC` (stereo not shown) [compound 698, 1-cyclopropyl-N-{1-[1-(3,4-dimethoxyphenyl)ethyl]azetidin-3-yl}-1H-1,2,3-triazole-4-carboxamide] here?
Answer: Its IC50 is 3.69 µM.

Question: `O=C(NC1CN(Cc2ccc(Cn3cccn3)cc2)C1)c1cn(C2CC2)nn1` [compound 953, N-(1-(4-((1H-pyrazol-1-yl)methyl)benzyl)azetidin-3-yl)-1-cyclopropyl-1H-1,2,3-triazole-4-carboxamide] was tested. Which IC50 did it give?
Answer: Its IC50 is 5.6 µM.

Question: How did the IC50 turn out when `COCCOc1cccc(CN2CC(NC(=O)c3cn(C4CC4)nn3)C2)c1` [compound 701, 1-cyclopropyl-N-(1-{[3-(2-methoxyethoxy)phenyl]methyl}azetidin-3-yl)-1H-1,2,3-triazole-4-carboxamide] was run?
Answer: The IC50 was 8.03 µM.

Question: `CN(C)CCNC(=O)c1cn(C2CC2)nn1` [compound 834, 1-cyclopropyl-N-[2-(dimethylamino)ethyl]-1H-1,2,3-triazole-4-carboxamide] was tested. Which IC50 did it give?
Answer: The IC50 was > 50 µM.

Question: For `COc1cccc(C(N2CC(NC(=O)c3cn(C4CC4)nn3)C2)C(F)(F)F)c1` (stereo not shown) [compound 729, 1-cyclopropyl-N-{1-[2,2,2-trifluoro-1-(3-methoxyphenyl)ethyl]azetidin-3-yl}-1H-1,2,3-triazole-4-carboxamide], which IC50 is on record?
Answer: The IC50 was > 50 µM.

Question: `COc1ccc(CN2CC(NC(=O)c3cn(C4CC4)nn3)C2)cc1` [compound 826, 1-cyclopropyl-N-{1-[(4-methoxyphenyl)methyl]azetidin-3-yl}-1H-1,2,3-triazole-4-carboxamide] was tested. Which IC50 did it give?
Answer: The IC50 was 1.84 µM.

Question: Which IC50 does the source give for `CC(c1ccc2[nH]nc(-c3ccccc3Cl)c2c1)N1CC(NC(=O)c2cn(C3CC3)nn2)C1` (stereo not shown) [compound 920, N-(1-(1-(3-(2-chlorophenyl)-1H-indazol-5-yl)ethyl)azetidin-3-yl)-1-cyclopropyl-1H-1,2,3-triazole-4-carboxamide] here?
Answer: The IC50 was > 50 µM.

Question: How did the IC50 turn out when `O=C(NC1CN(Cc2ccccc2)C1)c1cn(C2CC2)nn1` [compound 671, N-(1-benzylazetidin-3-yl)-1-cyclopropyl-1H-1,2,3-triazole-4-carboxamide] was run?
Answer: The IC50 was 4.21 µM.

Question: Which IC50 does the source give for `CC(c1cccc(OCCO)c1Cl)N1CC(NC(=O)c2cc(C3CC3)cnn2)C1` (stereo not shown) [compound 652, N-(1-{1-[2-chloro-3-(2-hydroxyethoxy)phenyl]ethyl}azetidin-3-yl)-5-cyclopropylpyridazine-3-carboxamide] here?
Answer: The IC50 was 0.0416 µM.

Question: For `CC(c1cc(Cl)ccc1Cl)N1CC(NC(=O)c2cc(C3CC3)cnn2)C1` (stereo not shown) [compound 649, 5-cyclopropyl-N-{1-[1-(2,5-dichlorophenyl)ethyl]azetidin-3-yl}pyridazine-3-carboxamide], which IC50 is on record?
Answer: Its IC50 is 0.14 µM.

Question: For `CC(c1ccc(OCc2ccccc2)cc1)N1CC(NC(=O)c2cc(C3CC3)cnn2)C1` (stereo not shown) [compound 836, N-(1-{1-[4-(benzyloxy)phenyl]ethyl}azetidin-3-yl)-5-cyclopropylpyridazine-3-carboxamide], which IC50 is on record?
Answer: The IC50 was 0.0265 µM.

Question: With `Cn1cnc(CN2CC(NC(=O)c3cn(C4CC4)nn3)C2)c1Cl` [compound 784, N-{1-[(5-chloro-1-methyl-1H-imidazol-4-yl)methyl]azetidin-3-yl}-1-cyclopropyl-1H-1,2,3-triazole-4-carboxamide] as the molecule, how does the IC50 read?
Answer: The IC50 was 21 µM.

Question: How did the IC50 turn out when `CC(c1ccc2nn(C)cc2c1)N1CC(NC(=O)c2cn(C3CC3)nn2)C1` (stereo not shown) [compound 935, 1-cyclopropyl-N-(1-(1-(2-methyl-2H-indazol-5-yl)ethyl)azetidin-3-yl)-1H-1,2,3-triazole-4-carboxamide] was run?
Answer: Its IC50 is 1.6 µM.

Question: `CC(c1nccs1)N1CC(NC(=O)c2cn(C3CC3)nn2)C1` (stereo not shown) [compound 716, 1-cyclopropyl-N-{1-[1-(1,3-thiazol-2-yl)ethyl]azetidin-3-yl}-1H-1,2,3-triazole-4-carboxamide] was tested. Which IC50 did it give?
Answer: The IC50 was 30.7 µM.

Question: Which IC50 does the source give for `CC(c1ccc(C(F)(F)F)cc1)N1CC(NC(=O)c2cn(C3CC3)nn2)C1` (stereo not shown) [compound 680, 1-cyclopropyl-N-(1-{1-[4-(trifluoromethyl)phenyl]ethyl}azetidin-3-yl)-1H-1,2,3-triazole-4-carboxamide] here?
Answer: Its IC50 is > 50 µM.

Question: How did the IC50 turn out when `COCCOc1ccc(CN2CC(NC(=O)c3cn(C4CC4)nn3)C2)cc1` [compound 830, 1-cyclopropyl-N-(1-{[4-(2-methoxyethoxy)phenyl]methyl}azetidin-3-yl)-1H-1,2,3-triazole-4-carboxamide] was run?
Answer: Its IC50 is 2.07 µM.

Question: With `COc1ccc(C(N2CC(NC(=O)c3cn(C4CC4)nn3)C2)C(F)(F)F)cc1` (stereo not shown) [compound 749, 1-cyclopropyl-N-{1-[2,2,2-trifluoro-1-(4-methoxyphenyl)ethyl]azetidin-3-yl}-1H-1,2,3-triazole-4-carboxamide] as the molecule, how does the IC50 read?
Answer: The IC50 was 0.565 µM.

Question: How did the IC50 turn out when `CSc1ccc(Cn2cc(CN3CC(NC(=O)c4cn(C5CC5)nn4)C3)cn2)cc1` [compound 941, 1-cyclopropyl-N-(1-((1-(4-(methylthio)benzyl)-1H-pyrazol-4-yl)methyl)azetidin-3-yl)-1H-1,2,3-triazole-4-carboxamide] was run?
Answer: Its IC50 is 0.028 µM.

Question: `Cn1cnc(CN2CC(NC(=O)c3cn(C4CC4)nn3)C2)c1` [compound 733, 1-cyclopropyl-N-{1-[(1-methyl-1H-imidazol-4-yl)methyl]azetidin-3-yl}-1H-1,2,3-triazole-4-carboxamide] was tested. Which IC50 did it give?
Answer: The IC50 was 6.8 µM.

Question: Which IC50 does the source give for `CC(c1ccc2c(c1)OCO2)N1CC(NC(=O)c2cn(C3CC3)nn2)C1` (stereo not shown) [compound 691, N-{1-[1-(2H-1,3-benzodioxol-5-yl)ethyl]azetidin-3-yl}-1-cyclopropyl-1H-1,2,3-triazole-4-carboxamide] here?
Answer: The IC50 was 0.807 µM.

Question: Which IC50 does the source give for `CC[C@@H](c1cccc(Cl)c1)N1CC(NC(=O)c2cc(C3CC3)cnn2)C1` [compound 866, N-{1-[(1S)-1-(3-chlorophenyl)propyl]azetidin-3-yl}-5-cyclopropylpyridazine-3-carboxamide] here?
Answer: Its IC50 is 0.355 µM.

Question: How did the IC50 turn out when `O=C(NC1CN(CC2COC2)C1)c1cn(C2CC2)nn1` [compound 666, 1-cyclopropyl-N-[1-(oxetan-3-ylmethyl)azetidin-3-yl]-1H-1,2,3-triazole-4-carboxamide] was run?
Answer: The IC50 was 6.06 µM.

Question: For `COc1ccccc1[C@H](C)N1CC(NC(=O)c2cc(C3CC3)cnn2)C1` [compound 841, 5-cyclopropyl-N-{1-[(1S)-1-(2-methoxyphenyl)ethyl]azetidin-3-yl}pyridazine-3-carboxamide], which IC50 is on record?
Answer: Its IC50 is 5.01 µM.

Question: Which IC50 does the source give for `CC(c1ccc(OCCc2ccccc2)cc1)N1CC(NC(=O)c2cn(C3CC3)nn2)C1` (stereo not shown) [compound 853, 1-cyclopropyl-N-(1-{1-[4-(2-phenylethoxy)phenyl]ethyl}azetidin-3-yl)-1H-1,2,3-triazole-4-carboxamide] here?
Answer: The IC50 was 0.776 µM.

Question: How did the IC50 turn out when `CC(c1ccccc1Cl)N1CC(NC(=O)c2cn(C3CC3)nn2)C1` (stereo not shown) [compound 859, N-{1-[1-(2-chlorophenyl)ethyl]azetidin-3-yl}-1-cyclopropyl-1H-1,2,3-triazole-4-carboxamide] was run?
Answer: The IC50 was 0.16 µM.

Question: How did the IC50 turn out when `COc1nn(C)cc1CN1CC(NC(=O)c2cn(C3CC3)nn2)C1` [compound 777, 1-cyclopropyl-N-{1-[(3-methoxy-1-methyl-1H-pyrazol-4-yl)methyl]azetidin-3-yl}-1H-1,2,3-triazole-4-carboxamide] was run?
Answer: The IC50 was 5.62 µM.

Question: For `O=C(NC1CN(C2CCc3cc(F)ccc32)C1)c1cn(C2CC2)nn1` (stereo not shown) [compound 740, 1-cyclopropyl-N-[1-(5-fluoro-2,3-dihydro-1H-inden-1-yl)azetidin-3-yl]-1H-1,2,3-triazole-4-carboxamide], which IC50 is on record?
Answer: The IC50 was 6.96 µM.
